Consider 4 molecules from patent US8063018B2, “Bivalent thrombin binding molecules comprising linkers” (National Research Council of Canada, priority 2004, dated 2011).

For this assay, the target named is thrombin (Homo sapiens, UniProt P00734). In words: Fibrinogen clotting assay catalyzed by thrombin. The format is biochemical. Particulars: concentration needed to double the clotting time. The method, then:
Curves represent OD420 time course after the addition of 0.6 nM thrombin in the presence of (♦) 0 nM; (◯) 0.5 nM; (□) 1 nM; (Δ) 1.5 nM; (⋄) 2.5 nM; (●) 3.75 nM; (▪) 6.25 nM; and (▴) […] of the inhibitor with linker (GS)n and n=2 (SEQ. ID. NO. 50) (a); n=4 (SEQ. ID. NO. 51) (b); n=6 (SEQ. ID. NO. 52) (c); n=8 (SEQ. ID. NO. 53) (d); n=10 (SEQ. ID. NO. 54) (e); and in the presence of (♦) 0 nM; (◯) 1 nM; (□) 2 nM; (Δ) 4 nM; (⋄) 6 nM; (●) 10 nM; (▪) 15 nM; and (▴) 25 nM of the inhibitor with linker (GS)n and n=12 (SEQ. ID. NO. 55) (f); n=14 (SEQ. ID. NO. 56) (g), at 37° C. The onset clotting time was determined as an intersection of the baseline and the extrapolated linear portion of the OD change curve. […] Curves (i) represent OD420 time course in the presence of (A) 0 nM; (◯) 1 nM; (□) 2 nM; (Δ) 4 nM; (⋄) 6 nM; and (●) 15 nM of the inhibitor with linker […] (SEQ. ID. NO. 103), at 37° C. […] represent OD420 time course in the presence of (◯) 0 nM; (□) 2 nM; (Δ) 4 nM; (⋄) 6 nM; (●) 8 nM; (▪) 10 nM; (▴) 12 nM; and (♦) 15 nM; of the inhibitor with linker […] (SEQ. ID. NO. 58) at 25° C. Curves (k) represent OD420 time course in the presence of (◯) 0 nM; (□) 0.5 nM; (Δ) 1 nM; (⋄) 2 nM; (●) 3 nM; (▪) 4 nM; (▴) 5 nM; and (♦) 6 nM; of the inhibitor with linker […] (SEQ. ID. NO. 105) at 37° C. Curves (I) represent OD420 time course in the presence of (◯) 0 nM; (□) 0.25 nM; (Δ) 0.5 nM; (⋄) 1 nM; (●) 1.5 nM; (▪) 2 nM; and (▴) 2.5 nM; of the inhibitor with linker […] (SEQ. ID. NO. 104) at 37° C. Curves (m) represent OD420 time course in the presence of (◯) 0 nM; (□) 2 nM; (Δ) 4 nM; (⋄) 6 nM; (●) 8 nM; (▴) 10 nM; and (A) 12 nM; of the inhibitor with linker […] (SEQ. ID. NO. 106) at 37° C. Curves (n) represent OD420 time course in the presence of (◯) 0 nM; (□) 1 nM; (Δ) 2 nM; (⋄) 3 nM; (●) 4 nM; (▪) 5 nM; (▴) 6 nM; and (♦) 7 nM; of the inhibitor with linker […] (SEQ. ID. NO. 107) at 37° C. Curves (o) represent OD420 time course in the presence of (◯) 0 nM; (□) 4 nM; and (Δ) 8 nM; of the inhibitor with linker GQSHNR (SEQ. ID. NO. 108) at 37° C.
Other experimental conditions were as used for the assays described in FIG. 2.
Clotting assays were carried out by use of the protocols described previously (DiMaio and others, 1990, 21698-21703; Witting and others, 1992, 737-743). The assay employs bovine plasma fibrinogen dissolved at 0.1% in 50 mM Tris-Cl, 100 mM NaCl, 0.1% PEG-8000 at pH 7.6 (i.e. the clotting buffer). Each assay mixture contained a certain concentration of the peptide, and the reaction was started by the addition of human thrombin to a final concentration of 0.6-1.2 nM. Optical absorbance increase at 420 nm caused by fibrin clot formation was measured at 25° C. or 37° C. using the Spectramax plate reader. The onset clotting time was determined as an intersection of the baseline and the extrapolated linear portion of the OD change curve. The concentration of a peptide needed to double the clotting time was defined as IC50 (DiMaio and others, 1990, 21698-21703). Kinetic amidolytic curves were obtained in clotting buffer at 25° C. using eight inhibitor concentrations and three to five concentrations of the chromogenic substrate S-2238 (Chromogenix) (DiMaio and others, 1990, 21698-21703). Inhibition constants were extracted from Lineweaver-Burk equation by using weighted linear regression. Errors in Ki determination were estimated by using Monte-Carlo sampling with 1-3% variance of the experimental points.

Regarding `CC[C@H](C)[C@H](NC(=O)[C@H](CCC(=O)O)NC(=O)[C@H](CCC(=O)O)NC(=O)[C@H](Cc1ccccc1)NC(=O)[C@H](CC(=O)O)NC(=O)CNC(=O)[C@H](CO)NC(=O)CNC(=O)[C@H](CO)NC(=O)CNC(=O)[C@H](CO)NC(=O)CNC(=O)[C@H](CO)NC(=O)CNC(=O)[C@H](CO)NC(=O)CNC(=O)[C@H](CO)NC(=O)CNC(=O)[C@H](CO)NC(=O)CNC(=O)[C@H](CO)NC(=O)CNC(=O)[C@@H](N)CSSC[C@H](NC(=O)CNC(=O)[C@H]1CCCCN1C(=O)[C@H](CCCNC(=N)N)NS(=O)(=O)c1ccc(C(C)(C)C)cc1)C(=O)O)C(=O)N1CCC[C@H]1C(=O)N[C@@H](CCC(=O)O)C(=O)N[C@@H](CCC(=O)O)C(=O)N[C@@H](Cc1ccc(O)cc1)C(=O)N[C@@H](CC(C)C)C(=O)N[C@@H](CCC(N)=O)C(=O)O` [P3172-P3165], half-maximal inhibition (IC50, nM (37° C.), 37° C.) (IC50) was put at 1.1 ± 0.2 nM.

With `CC[C@H](C)[C@H](NC(=O)[C@H](CCC(=O)O)NC(=O)[C@H](CCC(=O)O)NC(=O)[C@H](Cc1ccccc1)NC(=O)[C@H](CC(=O)O)NC(=O)CNC(=O)[C@H](CO)NC(=O)[C@@H](NC(=O)[C@H](CCCCN)NC(=O)[C@H](CCC(=O)O)NC(=O)[C@H](Cc1ccc(OP(=O)(O)O)cc1)NC(=O)[C@H](Cc1c[nH]cn1)NC(=O)[C@@H]1CCCN1C(=O)[C@H](CO)NC(=O)CNC(=O)[C@H](CO)NC(=O)[C@@H](NC(=O)[C@H](CCCCN)NC(=O)[C@H](CCC(=O)O)NC(=O)[C@H](Cc1ccc(OP(=O)(O)O)cc1)NC(=O)[C@H](Cc1c[nH]cn1)NC(=O)[C@@H]1CCCN1C(=O)[C@H](CO)NC(=O)CNC(=O)[C@H]1CCCCN1C(=O)[C@H](CCCNC(=N)N)NS(=O)(=O)c1ccc(C(C)(C)C)cc1)C(C)C)C(C)C)C(=O)N1CCC[C@H]1C(=O)N[C@@H](CCC(=O)O)C(=O)N[C@@H](CCC(=O)O)C(=O)N[C@@H](Cc1ccc(O)cc1)C(=O)N[C@@H](CC(C)C)C(=O)N[C@@H](CCC(N)=O)C(=O)O` [P3162], half-maximal inhibition (IC50, nM (25° C.), 25° C.) (IC50) required 19 ± 1 nM.

`CC[C@H](C)[C@H](NC(=O)[C@H](CCC(=O)O)NC(=O)[C@H](CCC(=O)O)NC(=O)[C@H](Cc1ccccc1)NC(=O)[C@H](CC(=O)O)NC(=O)CNC(=O)[C@H](CO)NC(=O)CNC(=O)[C@H](CO)NC(=O)CNC(=O)[C@H](CO)NC(=O)CNC(=O)[C@H](CO)NC(=O)CNC(=O)[C@H](CO)NC(=O)CNC(=O)[C@H](CCCCN)NC(=O)CNC(=O)[C@H](CO)NC(=O)CNC(=O)[C@H](CO)NC(=O)CNC(=O)[C@H](CO)NC(=O)CNC(=O)[C@H](CO)NC(=O)CNC(=O)[C@H]1CCCCN1C(=O)[C@H](CCCNC(=N)N)NS(=O)(=O)c1ccc(C(C)(C)C)cc1)C(=O)N1CCC[C@H]1C(=O)N[C@@H](CCC(=O)O)C(=O)N[C@@H](CCC(=O)O)C(=O)N[C@@H](Cc1ccc(O)cc1)C(=O)N[C@@H](CC(C)C)C(=O)N[C@@H](CCC(N)=O)C(=O)O` [P3174] returned an IC50 (IC50, nM (25° C.), 25° C.) of 1.6 ± 0.9 nM.

Where the note is “IC50, nM (37° C.), 37° C.”, `CC[C@H](C)[C@H](NC(=O)[C@H](CCC(=O)O)NC(=O)[C@H](CCC(=O)O)NC(=O)[C@H](Cc1ccccc1)NC(=O)[C@H](CC(=O)O)NC(=O)CNC(=O)[C@H](CO)NC(=O)CNC(=O)[C@H](CO)NC(=O)CNC(=O)[C@H](CO)NC(=O)CNC(=O)[C@H](CO)NC(=O)CNC(=O)[C@H](CO)NC(=O)CNC(=O)[C@H](CO)NC(=O)CNC(=O)[C@H](CO)NC(=O)CNC(=O)[C@H](CO)NC(=O)CNC(=O)[C@H]1CCCCN1C(=O)[C@H](CCCN=C(N)N)NS(=O)(=O)c1ccc(C(C)(C)C)cc1)C(=O)N1CCC[C@H]1C(=O)N[C@@H](CCC(=O)O)C(=O)N[C@@H](CCC(=O)O)C(=O)N[C@@H](Cc1ccc(O)cc1)C(=O)N[C@@H](CC(C)C)C(=O)N[C@@H](CCC(N)=O)C(=O)O` [P3152] displayed an IC50 of 0.7 ± 0.1 nM.
